Test system: high fat diet (HFD) rabbit model of metabolic-associated steatohepatitis (MASH)
Assay: HFD rabbit study, prolonged 4-week treatment (weeks 9–12): clinical and biochemical data
Format: in vivo, New Zealand White rabbits
Details: HFD rabbits, mean±SD, n=7
Description: After 1 week (W) of RD, the animals (n = 44) were randomly assigned to the following groups (Table 1B): • Control rabbits continued to receive a RD for 12 weeks and were treated with vehicle for 5 days a week (days 1–5, p.o.) during the last 4 weeks before culling (RD + 4W Veh group); • Rabbits received a HFD for 8 weeks and were culled (HFD 8W group); • Rabbits received a HFD for 12 weeks and were treated with vehicle for 5 days a week (days 1–5, p.o.) during the last 4 weeks before culling (HFD+4W Veh group); • Rabbits received a HFD for 12 weeks and were treated with GB1211 (0.3 mg/kg) for 5 days a week (days 1–5, p.o.) during the last 4 weeks before culling (HFD + 4W 0.3 mg group); • Rabbits received a HFD for 12 weeks and were treated with GB1211 (1.0 mg/kg) for 5 days a week (days 1–5, p.o.) during the last 4 weeks before culling (HFD + 4W 1.0 mg group); • Rabbits received a HFD for 12 weeks and were treated with GB1211 (5.0 mg/kg) for 5 days a week (days 1–5, p.o.) during the last 4 weeks before culling (HFD + 4W 5.0 mg group).
The oral glucose tolerance test (OGTT) was performed in accordance with the published method ([Filippi et al., 2009]). Briefly, after an overnight fast, a 50% glucose solution was orally administered to the animals at a dose of 1.5 g/kg. Blood samples were collected before and 15, 30, and 120 min after glucose loading. The incremental area under the curve (iAUC) was calculated by using GraphPad Prism (GraphPad Software, San Diego, CA). Blood samples for analyses were obtained from the marginal ear vein at week 8 or 12, in all groups. All blood samples were collected in standard conditions, before 10 a.m. after an overnight fasting. The blood was immediately centrifuged at 2,000 g for 20 min at 4°C and collected plasma/serum stored at −80°C until assayed. Plasma glucose, total cholesterol, triglycerides, transaminases (AST and ALT), and gamma-glutamyl transferase levels were measured using an automated system (Cobas 8000, Roche Diagnostics International AG, Rotkreuz, Switzerland). Serum alkaline phosphatase, albumin and total bilirubin levels were measured at IDEXX Laboratories (Kornwestheim, Germany), using an automated system (AU480, Beckman-Coulter, Brea, CA) with kinetic and photometric colour tests as per the following methods: alkaline phosphatase - alkaline buffer solution [2-amino-2-methylpropanol (AMP) in conjunction with p-nitrophenyl phosphate (pNPP)], according to the recommendation of the International Federation for Clinical Chemistry; albumin - the reaction of bromocresol green with albumin produces a colour complex, the absorption of which is measured dichromatically ([Doumas et al., 1971]); total bilirubin - a stabilized diazonium salt, 3,5-dichlorophenyldiazonium tetrafluoroborate (DPD), reacts with bilirubin to formazobilirubin, which absorbs at 570 nm ([Tolman and Rej, 1999]).
Mean arterial blood pressure (MAP) was measured by using a polyethylene catheter inserted into a femoral artery at week 8 or 12, after ketamine (10 mg/kg i.v.) and sodium thiopental (50 mg/kg i.v.) sedation.

With `OC[C@H]1O[C@H](Sc2cncc(Br)c2)[C@H](O)[C@@H](n2cc(-c3cc(F)c(F)c(F)c3)nn2)[C@H]1O` [selvigaltin] the ALP (0.3 mg/kg p.o. 5 days/week) was 69.43 ± 38.22 U/L, the ALT (0.3 mg/kg p.o. 5 days/week) was 45.71 ± 22.51 U/L and the AST (0.3 mg/kg p.o. 5 days/week) was 74.29 ± 51.50 U/L. It also gave an Albumin (0.3 mg/kg p.o. 5 days/week) of 38.29 ± 4.42 g/L, a Bilirubin (0.3 mg/kg p.o. 5 days/week) of 17.91 ± 13.00 µM and a Glycaemia (0.3 mg/kg p.o. 5 days/week) of 1.21 ± 0.15 gr/L. For the same compound, the “Liver Weight” value (0.3 mg/kg p.o. 5 days/week) was 3.56 ± 0.28 % of BW, the MAP (0.3 mg/kg p.o. 5 days/week) was 144.91 ± 16.18 mmHg and the “OGTT (iAUC)” value (0.3 mg/kg p.o. 5 days/week) was 165.51 ± 20.71. For the same compound, the “Plasma Cholesterol” value (0.3 mg/kg p.o. 5 days/week) was 2,277.43 ± 1,078.47 mg/dL, the “Plasma Triglycerides” value (0.3 mg/kg p.o. 5 days/week) was 374.00 ± 619.70 mg/dL and the “Tissue Triglycerides” value (0.3 mg/kg p.o. 5 days/week) was 14.76 ± 2.26 nmol/mg Liver. The “VAT Weight” value (0.3 mg/kg p.o. 5 days/week) was 0.67 ± 0.21 % of BW, the γGT (0.3 mg/kg p.o. 5 days/week) was 30.08 ± 22.90 U/L and the ALP (1.0 mg/kg p.o. 5 days/week) was 72.86 ± 65.69 U/L. For the same compound, the ALT (1.0 mg/kg p.o. 5 days/week) was 58.14 ± 27.72 U/L, the AST (1.0 mg/kg p.o. 5 days/week) was 59.00 ± 37.48 U/L and the Albumin (1.0 mg/kg p.o. 5 days/week) was 38.71 ± 2.63 g/L. For the same compound, the Bilirubin (1.0 mg/kg p.o. 5 days/week) was 9.53 ± 3.73 µM, the Glycaemia (1.0 mg/kg p.o. 5 days/week) was 1.90 ± 0.87 gr/L and the “Liver Weight” value (1.0 mg/kg p.o. 5 days/week) was 3.73 ± 0.32 % of BW. The MAP (1.0 mg/kg p.o. 5 days/week) was 151.23 ± 26.21 mmHg, the “OGTT (iAUC)” value (1.0 mg/kg p.o. 5 days/week) was 189.37 ± 22.39 and the “Plasma Cholesterol” value (1.0 mg/kg p.o. 5 days/week) was 2,182.86 ± 776.09 mg/dL. For the same compound, the “Plasma Triglycerides” value (1.0 mg/kg p.o. 5 days/week) was 157.29 ± 68.66 mg/dL, the “Tissue Triglycerides” value (1.0 mg/kg p.o. 5 days/week) was 14.34 ± 1.35 nmol/mg Liver and the “VAT Weight” value (1.0 mg/kg p.o. 5 days/week) was 0.68 ± 0.24 % of BW. It also gave a γGT (1.0 mg/kg p.o. 5 days/week) of 27.71 ± 14.16 U/L, an ALP (5.0 mg/kg p.o. 5 days/week) of 49.57 ± 30.84 U/L and an ALT (5.0 mg/kg p.o. 5 days/week) of 56.43 ± 20.02 U/L. It also gave an AST (5.0 mg/kg p.o. 5 days/week) of 62.43 ± 15.80 U/L, an Albumin (5.0 mg/kg p.o. 5 days/week) of 39.29 ± 5.94 g/L and a Bilirubin (5.0 mg/kg p.o. 5 days/week) of 15.45 ± 9.05 µM. For the same compound, the Glycaemia (5.0 mg/kg p.o. 5 days/week) was 1.43 ± 0.35 gr/L, the “Liver Weight” value (5.0 mg/kg p.o. 5 days/week) was 3.56 ± 0.16 % of BW and the MAP (5.0 mg/kg p.o. 5 days/week) was 141.04 ± 30.52 mmHg. The “OGTT (iAUC)” value (5.0 mg/kg p.o. 5 days/week) was 165.00 ± 2.65, the “Plasma Cholesterol” value (5.0 mg/kg p.o. 5 days/week) was 1,546.43 ± 350.47 mg/dL and the “Plasma Triglycerides” value (5.0 mg/kg p.o. 5 days/week) was 191.43 ± 234.40 mg/dL. The “Tissue Triglycerides” value (5.0 mg/kg p.o. 5 days/week) was 14.51 ± 1.49 nmol/mg Liver, the “VAT Weight” value (5.0 mg/kg p.o. 5 days/week) was 0.87 ± 0.32 % of BW and the γGT (5.0 mg/kg p.o. 5 days/week) was 21.29 ± 13.11 U/L.
